The record followed here is patent publication US10065990B2, “Cyclic peptide compound, and preparation method, pharmaceutical composition and use thereof” (HANGZHOU GUANYU BIO-MEDICAL CO., LTD, priority 2013, dated 2018).

In test [1] the target is T1, HDAC7 (Homo sapiens, UniProt Q8WUI4).
T1 sequence (Q8WUI4 1-952): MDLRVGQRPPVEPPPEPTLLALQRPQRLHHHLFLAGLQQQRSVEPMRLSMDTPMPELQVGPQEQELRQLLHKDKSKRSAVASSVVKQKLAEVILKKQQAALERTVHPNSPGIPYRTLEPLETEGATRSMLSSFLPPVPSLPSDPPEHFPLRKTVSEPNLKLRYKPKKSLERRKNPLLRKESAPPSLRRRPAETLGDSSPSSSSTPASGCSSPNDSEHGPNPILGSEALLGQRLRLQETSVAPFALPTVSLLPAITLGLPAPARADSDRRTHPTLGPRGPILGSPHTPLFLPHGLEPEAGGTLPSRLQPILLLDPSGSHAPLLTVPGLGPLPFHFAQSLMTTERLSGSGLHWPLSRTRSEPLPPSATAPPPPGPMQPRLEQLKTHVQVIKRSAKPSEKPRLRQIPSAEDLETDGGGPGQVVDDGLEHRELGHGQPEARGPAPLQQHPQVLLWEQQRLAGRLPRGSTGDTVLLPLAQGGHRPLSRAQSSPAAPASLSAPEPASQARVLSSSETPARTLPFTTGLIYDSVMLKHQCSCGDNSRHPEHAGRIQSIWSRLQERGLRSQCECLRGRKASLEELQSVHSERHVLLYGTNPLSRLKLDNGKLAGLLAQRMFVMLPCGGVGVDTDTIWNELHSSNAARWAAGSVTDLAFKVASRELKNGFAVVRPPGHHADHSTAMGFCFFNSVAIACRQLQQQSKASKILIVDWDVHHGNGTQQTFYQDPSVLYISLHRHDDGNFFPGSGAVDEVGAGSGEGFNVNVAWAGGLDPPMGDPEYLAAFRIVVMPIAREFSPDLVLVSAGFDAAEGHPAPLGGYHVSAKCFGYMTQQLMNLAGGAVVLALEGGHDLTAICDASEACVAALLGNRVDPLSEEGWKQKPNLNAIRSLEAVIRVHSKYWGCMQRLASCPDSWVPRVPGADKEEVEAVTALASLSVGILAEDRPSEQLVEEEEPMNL
Nature of the test: HDAC biochemical activity measurement (fluorescent substrate deacetylation).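 On all read-outs here: fluorogenic deacetylation assay using acetyl-lysine substrate at 20 µM, enzyme and compound incubated 30 min at 37 °C, then developer added, fluorescence read at 360/460 nm.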 The settings on record: for IC50 HDAC7: 37° C. 30 minutes.

For test [2], the system named is A549 (human lung cancer cells). Kind of test: MTT cancer cell growth inhibition. The conditions noted are these: Homo sapiens, A549, 72 h, MTT, 72 hours incubation, read-out: GI50 A54. It is filed as cell-based. The gist of the method:
(§1)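 Absorbance at 570 nm of DMSO-dissolved formazan, formed during a 4 h MTT incubation, served as the viability measure. Cells had been exposed 72 h to drug at 10^−5–10^−10 M final; GI50 was calculated from these readings.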

In test [3] the test system is BGC-823 (human gastric cancer cells). Nature of the test: MTT cancer cell growth inhibition. The settings on record: Homo sapiens, BGC-823, 72 h, MTT, 72 hours incubation, read-out: GI50 BG. It is filed as cell-based. The gist of the method:
as §1

For test [4], the system named is Bel-7402 (human hepatoma cells). Nature of the test: MTT cancer cell growth inhibition. The conditions noted are these: Homo sapiens, Bel-7402, 72 h, MTT, 72 hours incubation, Bel-7402 cells; read-out: GI50 Bel-7402. It is filed as cell-based. In short, it runs like this:
as §1

The subject of test [5] is DU145 (human prostate cancer cells). Nature of the test: MTT cancer cell growth inhibition. It is filed as cell-based. The settings on record: Homo sapiens, DU-145, 72 h, MTT, 72 hours incubation, read-out: GI50 Du1. In short, it runs like this: as §1
Test [6] concerns H1975 (non-small cell lung adenocarcinoma). Nature of the test: MTT cancer cell growth inhibition. It is filed as cell-based. The conditions noted are these: Homo sapiens, NCI-H1975, 72 h, MTT, 72 hours incubation, H1975 cells; read-out: GI50 H1975. In short, it runs like this:
as §1

Test [7] deals with HCC827 (human non-small cell lung cancer cells). Nature of the test: MTT cancer cell growth inhibition. It is filed as cell-based. The settings on record: Homo sapiens, HCC827, 72 h, MTT, 72 hours incubation, HCC827 cells; read-out: GI50 HCC827. In short, it runs like this: as §1
Test [8] relates to HT1080 (human fibrosarcoma cells). Kind of test: MTT cancer cell growth inhibition. It is filed as cell-based. The conditions noted are these: Homo sapiens, HT-1080, 72 h, MTT, 72 hours incubation, read-out: GI50 HT1. In short, it runs like this:
as §1

Test [9] deals with Hela (human cervical cancer cells). Nature of the test: MTT cancer cell growth inhibition. It is filed as cell-based. The conditions noted are these: Homo sapiens, HeLa, 72 h, MTT, 72 hours incubation, read-out: GI50 Hela. In short, it runs like this:
as §1

Test [10] has as its system Huh-7 (human hepatoma cells). Nature of the test: MTT cancer cell growth inhibition. The conditions noted are these: Homo sapiens, Huh-7, 72 h, MTT, 72 hours incubation, Huh-7 cells; read-out: GI50 Huh-7. It is filed as cell-based. In short, it runs like this: as §1
The subject of test [11] is K562 (human leukemia cells). Nature of the test: MTT cancer cell growth inhibition. It is filed as cell-based. The settings on record: Homo sapiens, K562, 72 h, MTT, 72 hours incubation, K562 cells; read-out: GI50 K562. In short, it runs like this:
as §1

In test [12] the test system is KBM-5 (human chronic myelogenous leukemia). Nature of the test: MTT cancer cell growth inhibition. It is filed as cell-based. The settings on record: Homo sapiens, KBM5, 72 h, MTT, 72 hours incubation, KBM-5 cells; read-out: GI50 KBM-5. The gist of the method:
as §1

In test [13] the test system is KBM5-T315I (human chronic myelogenous leukemia). Nature of the test: MTT cancer cell growth inhibition. It is filed as cell-based. The conditions noted are these: Homo sapiens, 72 h, MTT, 72 hours incubation, KBM5-T315I cells; read-out: GI50 KBM5-T315I. In short, it runs like this:
as §1

For test [14], the system named is MCF-7 (human breast cancer cells). Kind of test: MTT cancer cell growth inhibition. It is filed as cell-based. The conditions noted are these: Homo sapiens, MCF7, 72 h, 72 hours incubation, read-out: GI50 MCF. In short, it runs like this:
as §1

The test system of test [15] is MDA-MB-231 (breast cancer cells). Nature of the test: MTT cancer cell growth inhibition. It is filed as cell-based. The conditions noted are these: Homo sapiens, MDA-MB-231, 72 h, read-out: GI50 MDA-MB-231, MTT, 72 hours incubation, MDA-MB-231 cells. In short, it runs like this: as §1
For test [16], the system named is MOLT-4 (human acute lymphoblastic leukemia cells). Nature of the test: MTT cancer cell growth inhibition. It is filed as cell-based. The settings on record: Homo sapiens, MOLT-4, 72 h, MTT, 72 hours incubation, read-out: GI50 Mol. The gist of the method:
as §1

Test [17] concerns N-87 (human gastric cancer cells). Kind of test: MTT cancer cell growth inhibition. The settings on record: Homo sapiens, 72 h, MTT, 72 hours incubation, N-87 cells; read-out: GI50 N-87. It is filed as cell-based. The gist of the method: as §1
The test system of test [18] is PANC-1 (Pac-1, human pancreatic cancer cells). Nature of the test: MTT cancer cell growth inhibition. It is filed as cell-based. The settings on record: Homo sapiens, PANC-1, 72 h, MTT, 72 hours incubation, read-out: GI50 PAN. In short, it runs like this: as §1
The subject of test [19] is SGC-7901 (human gastric cancer cells). Kind of test: MTT cancer cell growth inhibition. It is filed as cell-based. The settings on record: Homo sapiens, SGC-7901, 72 h, MTT, 72 hours incubation, SGC-7901 cells; read-out: GI50 SGC-7901. The gist of the method: as §1
Test [20] concerns U937 (human leukemia cells). Kind of test: MTT cancer cell growth inhibition. It is filed as cell-based. The settings on record: Homo sapiens, U-937, 72 h, MTT, 72 hours incubation, read-out: GI50 U93. In short, it runs like this:
as §1

The test system of test [21] is lncap (prostate cancer cells). Kind of test: MTT cancer cell growth inhibition. It is filed as cell-based. The settings on record: Homo sapiens, LNCaP, 72 h, MTT, 72 hours incubation, read-out: GI50 lnca. In short, it runs like this: as §1

Like-named read-outs stand apart in the source and are kept apart here.

For orientation: GI50 means the concentration giving 50% growth inhibition. Turning to `C/C=C1\NC(=O)c2ccc(F)c(n2)CNC(=O)C[C@@H](/C=C/CCSC(C)=O)OC(=O)[C@H](Cc2ccc(O)cc2)NC1=O` [Compound 83], in test [1], the “IC50 HDAC7” value is given as “no activity”. Further, the GI50 in [2] is 50 nM; in test [3], 10 nM; in test [4], 93 nM; in test [5], 40 nM; in test [6] it was 53 nM; in test [7], 93 nM. Also, the GI50 in [8] was determined as 90 nM; in test [9], 30 nM; in test [10] it was 37 nM; in test [11], 43 nM; in [12], 38 nM; in test [13], 29 nM. In addition, the GI50 was determined as 20 nM in test [14]; 37 nM in [15]; 30 nM in [16]; 16 nM in [17]; 90 nM in test [18]; 53 nM in test [19]. Moreover, the GI50 in test [20] amounted to 50 nM; in [21], 30 nM.

With `C/C=C1\NC(=O)c2cc(SC)cc(n2)CNC(=O)C[C@@H](/C=C/CCS)OC(=O)[C@H](CC)NC1=O` [Compound 230], in [1], the “IC50 HDAC7” value was “no activity”. Also, the GI50 was determined as 20 nM in test [2] (A549 cells); 30 nM in test [3] (BGC-823 cells); 23 nM in [4]; 50 nM in test [5] (DU145 cells); 35 nM in [6]; 35 nM in test [7]. Besides, the GI50 in test [8] (HT1080 cells) is 20 nM; in test [9] (Hela cells), 20 nM; in test [10], 91 nM; in test [11] it was 23 nM; in test [12], 26 nM; in test [13], 87 nM. In addition, the GI50 in test [14] (MCF-7 cells) is 70 nM; in [15], 83 nM; in [16] (MOLT-4 cells), 30 nM; in [17], 36 nM; in [18] (PANC-1 cells), 30 nM; in test [19], 48 nM. Also, the GI50 worked out at 20 nM in test [20] (U937 cells) and 50 nM in test [21] (lncap cells).

`C=C1NC(=O)c2cc(F)cc(n2)CNC(=O)C[C@@H](/C=C/CCS)OC(=O)[C@H](C)NC1=O` [Compound 141]: the “IC50 HDAC7” value in [1] is “no activity”. The GI50 in test [2] worked out at 50 nM; in [3], 30 nM; in [4] it was 58 nM; in test [5], 70 nM; in [6] it was 38 nM; in [7], 37 nM. The GI50 in [8] came out at 80 nM; in [9] it was 80 nM; in test [10] it was 28 nM; in test [11], 31 nM; in test [12], 36 nM; in test [13], 43 nM. The GI50 in [14] was 70 nM; in test [15], 26 nM; in test [16], 80 nM; in [17], 67 nM; in test [18], 50 nM; in test [19], 17 nM. Further, the concentration for 50% growth inhibition (GI50) in test [20] amounted to 50 nM; in test [21], 80 nM.

As to `C/C=C1\NC(=O)c2ccc(SCC)c(n2)CNC(=O)C[C@@H](/C=C/CCSC(=O)CCCCCC)OC(=O)[C@H](C(C)C)NC1=O` [Compound 252], the “IC50 (μM) HDAC7” value in [1] is on record as “no activity”. In addition, the GI50 in test [2] (A549 cells) came out at 50 nM; in test [3] (BGC-823 cells) it was 30 nM; in test [4], 79 nM; in test [5] (DU145 cells), 70 nM; in test [6], 90 nM; in test [7], 76 nM. The GI50 in test [8] (HT1080 cells) came out at 40 nM; in test [9] (Hela cells), 50 nM; in test [10], 26 nM; in test [11], 81 nM; in test [12], 72 nM; in [13], 81 nM. For the same compound, the GI50 in test [14] (MCF-7 cells) was found to be 20 nM; in test [15] it was 42 nM; in test [16] (MOLT-4 cells), 90 nM; in test [17], 67 nM; in [18] (PANC-1 cells) it was 60 nM; in test [19], 35 nM. Moreover, the GI50 in [20] (U937 cells) was 40 nM; in [21] (lncap cells) it was 50 nM.

Turning to `C/C=C1\NC(=O)c2ccc(C)c(n2)CNC(=O)C[C@@H](/C=C/CCSC(C)=O)OC(=O)[C@H](Cc2ccccc2)NC1=O` [Example 68], the “IC50 HDAC7” value in [1] is “no activity”. The concentration for 50% growth inhibition (GI50) in test [2] came out at 20 nM; in test [3], 40 nM; in test [4], 83 nM; in [5], 20 nM; in [6] it was 35 nM; in test [7], 83 nM. Also, the GI50 in test [8] was 80 nM; in [9], 50 nM; in test [10] it was 22 nM; in test [11] it was 26 nM; in [12], 51 nM; in test [13], 34 nM. The GI50 was found to be 30 nM in test [14]; 22 nM in test [15]; 20 nM in test [16]; 43 nM in test [17]; 80 nM in test [18]; 29 nM in test [19]. For the same compound, the GI50 was 30 nM in [20] and 20 nM in test [21].
